Laboratory results published in patent publication EP3509566B1, “COMPOUNDS FOR REDUCING CELLULAR MELANIN CONTENT” (Unilever N.V., priority 2016, dated 2018).
Like-named read-outs stand apart in the source and are kept apart here.

Experiments:
[1] = Cell viability assay (calcein method); type: cell-based, human; settings: human, epidermal melanocytes
Procedure: (§1) A set of indolyl compounds were purchased from SIGMA-ALDRICH as stocks of 10 mM in 100% DMSO. They were initially examined at 25 uM concentration in cell culture (Table 1) for their ability to reduce melanin content and then, at different doses (Table 2). Neonatal foreskin primary human epidermal melanocytes was sourced from Cascade Biologicals (labelled passage P0). Melanocytes were maintained in Medium 254CF (Cascade Cat. # M-254CF-500) supplemented with human melanocyte growth supplement (Cascade; Cat. # S-002-5), hereafter referred to as MGM. Cells were maintained at 37 °C in a humidified incubator with 5 % CO2 atmosphere. 50,000 cells were seeded in 24 well plate in MGM. After 24 hours, the cultures were treated with various concentrations of test materials and were left undisturbed for a further period of 72 hours. Comparative vehicle controls of 0.25 % (v/v) DMSO were also set up in parallel, simultaneously. At the end of the incubation period, the cell viability was determined using the calcein method. Briefly, cell culture spent media was removed and cells washed once with 0.4 ml of 1x PBS-Ca-Mg solution. […] Plates were covered with aluminium foil and incubated for 30 minutes at 37 °C in the regular CO2 incubator. […] Percentage Melanin content was calculated as the ratio between OD405nm value of any sample to that of DMSO reference sample.

[2] = test system: Neonatal foreskin primary human epidermal melanocytes; experiment: Melanin content assay (OD405nm of cell lysate); type: cell-based
Procedure: A set of indolyl compounds were purchased from SIGMA-ALDRICH as stocks of 10 mM in 100% DMSO. They were initially examined at 25 uM concentration in cell culture (Table 1) for their ability to reduce melanin content and then, at different doses (Table 2). Neonatal foreskin primary human epidermal melanocytes was sourced from Cascade Biologicals (labelled passage P0). Melanocytes were maintained in Medium 254CF (Cascade Cat. # M-254CF-500) supplemented with human melanocyte growth supplement (Cascade; Cat. # S-002-5), hereafter referred to as MGM. Cells were maintained at 37 °C in a humidified incubator with 5 % CO2 atmosphere. 50,000 cells were seeded in 24 well plate in MGM. After 24 hours, the cultures were treated with various concentrations of test materials and were left undisturbed for a further period of 72 hours. Comparative vehicle controls of 0.25 % (v/v) DMSO were also set up in parallel, simultaneously. At the end of the incubation period, the cell viability was determined using the calcein method. […] Cells were lysed by resuspension and incubation (60 °C/one hour.). Then this lysate was transferred to a fresh 384-well plate and measured OD405nm in a TECAN M1000 plate reader (estimate of relative melanin content). […] Percentage Melanin content was calculated as the ratio between OD405nm value of any sample to that of DMSO reference sample.

[3] = test system: Neonatal foreskin primary human epidermal melanocytes; experiment: Cell viability assay (calcein method); type: cell-based; settings: 72 hours
Procedure: as §1

[4] = 25 µM, 72 hours, Table 2, fresh batch
[5] = Homo sapiens, Melanocyte, 72 h, 25 µM, 72 hours, Table 2, fresh batch, read-out: 100* (% Melanin/%Viability)
[6] = Homo sapiens, Melanocyte, 72 h, 25 µM, 72 hours, Table 2, fresh batch, read-out: % Melanin
[7] = Homo sapiens, Melanocyte, 72 h, 25 µM, 72 hours, Table 2, fresh batch, read-out: % reduction in Melanin
[8] = 3.125 µM, 72 hours, Table 2, fresh batch
[9] = 6.25 µM, 72 hours, Table 2, fresh batch
[10] = 12.5 µM, 72 hours, Table 2, fresh batch
[11] = 25 µM, 72 hours, Table 1, 100 = 0.25% DMSO, read-out: % Viability
[12] = 50 µM, 72 hours, Table 2, fresh batch
[13] = Homo sapiens, Melanocyte, 72 h, 25 µM, 72 hours, Table 1, normalized melanin content, read-out: 100* (%Melanin/% Viability)
[14] = Homo sapiens, Melanocyte, 72 h, 25 µM, 72 hours, Table 1, read-out: % reduction in Melanin
[15] = Homo sapiens, Melanocyte, 72 h, 25 µM, 72 hours, Table 1, relative to DMSO, read-out: % Melanin

SMILES: O=c1cc(CO)occ1O [Kojic acid, reference compound]
- viability at 72 h, 25 µM ([1]; % Viability): 102%
- viability at 72 h, 250 µM ([1]; % Viability): 96%
- viability at 72 h, 500 µM ([1]; % Viability): 96%
- OD405nm (Melanin) [2, 4]: 0.177
- OD405nm (Melanin) ([2]; 250 µM, 72 hours, Table 2, fresh batch): 0.152
- OD405nm (Melanin) ([2]; 500 µM, 72 hours, Table 2, fresh batch): 0.139
- activity at 25 µM [2, 5]: 99.3%
- activity at 25 µM [2, 6]: 101%
- inhibition at 25 µM [2, 7]: 0.7%
- activity at 250 µM ([2]; Homo sapiens, Melanocyte, 72 h, 250 µM, 72 hours, Table 2, fresh batch, read-out: 100* (% Melanin/%Viability)): 90.4%
- activity at 250 µM ([2]; Homo sapiens, Melanocyte, 72 h, 250 µM, 72 hours, Table 2, fresh batch, read-out: % Melanin): 87%
- inhibition at 250 µM ([2]; Homo sapiens, Melanocyte, 72 h, 250 µM, 72 hours, Table 2, fresh batch, read-out: % reduction in Melanin): 9.6%
- activity at 500 µM ([2]; Homo sapiens, Melanocyte, 72 h, 500 µM, 72 hours, Table 2, fresh batch, read-out: 100* (% Melanin/%Viability)): 83.3%
- activity at 500 µM ([2]; Homo sapiens, Melanocyte, 72 h, 500 µM, 72 hours, Table 2, fresh batch, read-out: % Melanin): 80%
- inhibition at 500 µM ([2]; Homo sapiens, Melanocyte, 72 h, 500 µM, 72 hours, Table 2, fresh batch, read-out: % reduction in Melanin): 16.7%

SMILES: CC(Cc1c[nH]c2ccccc12)NC(=O)OCCCl (stereo not shown) [Compound #1, 2-chloroethyl [2-(1H-indol-3-yl)-1-methylethyl] carbamate]
- Calcein Fluorescence ([3]; 3.125 µM, Table 2, fresh batch): 94 arbitrary units
- Calcein Fluorescence ([3]; 6.25 µM, Table 2, fresh batch): 96.6 arbitrary units
- Calcein Fluorescence ([3]; 12.5 µM, Table 2, fresh batch): 93.4 arbitrary units
- Calcein Fluorescence ([3]; 25 µM, Table 1): 95 arbitrary unit
- Calcein Fluorescence ([3]; 25 µM, Table 2, fresh batch of melanocytes): 93.7 arbitrary units
- Calcein Fluorescence ([3]; 50 µM, Table 2, fresh batch): 88.3 arbitrary units
- viability at 72 h, 3.125 µM [1, 8]: 94%
- viability at 72 h, 6.25 µM [1, 9]: 96.6%
- viability at 72 h, 12.5 µM [1, 10]: 93.4%
- viability at 72 h, 25 µM [1, 11]: 95%
- viability at 72 h, 25 µM ([1]; 25 µM, 72 hours, Table 2, fresh batch, read-out: % Viability): 93.7%
- viability at 72 h, 50 µM [1, 12]: 88.3%
- % reduction in Melanin [2, 8]: Nil
- OD405nm (Melanin) [2, 8]: 0.168
- OD405nm (Melanin) [2, 9]: 0.146
- OD405nm (Melanin) [2, 10]: 0.134
- OD405nm (Melanin) ([2]; 25 µM, 72 hours, Table 1): 0.093
- OD405nm (Melanin) [2, 4]: 0.122
- melanin reduction (in words) ([2]; 25 µM, Table 1): significant melanin reduction
- OD405nm (Melanin) [2, 12]: 0.103
- activity at 3.125 µM ([2]; Homo sapiens, Melanocyte, 72 h, 3.125 µM, 72 hours, Table 2, fresh batch, read-out: 100* (% Melanin/%Viability)): 102%
- activity at 3.125 µM ([2]; Homo sapiens, Melanocyte, 72 h, 3.125 µM, 72 hours, Table 2, fresh batch, read-out: % Melanin): 96%
- activity at 6.25 µM ([2]; Homo sapiens, Melanocyte, 72 h, 6.25 µM, 72 hours, Table 2, fresh batch, read-out: 100* (% Melanin/%Viability)): 85.9%
- activity at 6.25 µM ([2]; Homo sapiens, Melanocyte, 72 h, 6.25 µM, 72 hours, Table 2, fresh batch, read-out: % Melanin): 83%
- inhibition at 6.25 µM ([2]; Homo sapiens, Melanocyte, 72 h, 6.25 µM, 72 hours, Table 2, fresh batch, read-out: % reduction in Melanin): 14.1%
- activity at 12.5 µM ([2]; Homo sapiens, Melanocyte, 72 h, 12.5 µM, 72 hours, Table 2, fresh batch, read-out: 100* (% Melanin/%Viability)): 82.4%
- activity at 12.5 µM ([2]; Homo sapiens, Melanocyte, 72 h, 12.5 µM, 72 hours, Table 2, fresh batch, read-out: % Melanin): 77%
- inhibition at 12.5 µM ([2]; Homo sapiens, Melanocyte, 72 h, 12.5 µM, 72 hours, Table 2, fresh batch, read-out: % reduction in Melanin): 17.6%
- activity at 25 µM [2, 13]: 87%
- inhibition at 25 µM [2, 14]: 13%
- activity at 25 µM [2, 15]: 83%
- activity at 25 µM [2, 5]: 74.7%
- activity at 25 µM [2, 6]: 70%
- inhibition at 25 µM [2, 7]: 25.3%
- activity at 50 µM ([2]; Homo sapiens, Melanocyte, 72 h, 50 µM, 72 hours, Table 2, fresh batch, read-out: 100* (% Melanin/%Viability)): 66.8%
- activity at 50 µM ([2]; Homo sapiens, Melanocyte, 72 h, 50 µM, 72 hours, Table 2, fresh batch, read-out: % Melanin): 59%
- inhibition at 50 µM ([2]; Homo sapiens, Melanocyte, 72 h, 50 µM, 72 hours, Table 2, fresh batch, read-out: % reduction in Melanin): 33.2%
- efficacy compared to Kojic acid (in words) ([2]; various doses, Table 2): more efficacious at concentrations much lower than Kojic acid

SMILES: CC(=O)O.CC(Cc1c[nH]c2ccccc12)NC(=O)CN (stereo not shown) [Compound #3, 2-amino-N-[2-(1H-indol-3-yl)-1-methylethyl]acetamide acetate]
- Calcein Fluorescence ([3]; 25 µM, Table 1): 111 arbitrary unit
- viability at 72 h, 25 µM [1, 11]: 111%
- OD405nm (Melanin) ([2]; 25 µM, 72 hours, Table 1): 0.111
- melanin reduction (in words) ([2]; 25 µM, Table 1): significant melanin reduction
- activity at 25 µM [2, 13]: 89%
- inhibition at 25 µM [2, 14]: 11%
- activity at 25 µM [2, 15]: 99%

SMILES: CC(=O)NC(C)Cc1c[nH]c2ccccc12 (stereo not shown) [Compound #2, N-[2-(1H-indol-3-yl)-1-methylethyl]acetamide, reference compound]
- Calcein Fluorescence ([3]; 25 µM, Table 1): 98 arbitrary unit
- viability at 72 h, 25 µM [1, 11]: 98%
- OD405nm (Melanin) ([2]; 25 µM, 72 hours, Table 1): 0.108
- melanin reduction (in words) ([2]; 25 µM, Table 1): comparatively insignificant
- activity at 25 µM [2, 13]: 98%
- inhibition at 25 µM [2, 14]: 2%
- activity at 25 µM [2, 15]: 96%
